Assay results reported in US20140057978A1, “NOVEL USE OF BENZOFURANYLSULFONATES” (priority 2011, published 2014).

Tests used:
[1] = test system: embryonic DRG (Dorsal Root Ganglion) explants; assay: Axonal growth in embryonic DRG explants; assay type: cell-based, rat; details: 22 hours in vitro
Procedure: (§1) In vitro experiments with a benzofuranylsulfonate to improve axonal growth and Schwann cell expansion in embryonic DRG (Dorsal Root Ganglion) explants of rats.
(§2) Outgrowth studies with Methanesulfonic acid 2-(2,4-dichloro-benzoyl)-3-ureido-benzofuran-6-yl ester or the vehicle were performed on embryonic neural tissue. DRGs of thoracic, lumbar, and sacral levels were prepared from Wistar rat embryos E18-20 and processed in ice cold 0.6% glucose in PBS. Harvested DRGs were freed from attaching nerve fibres, dissected, and transferred onto PDL- and laminin-coated glass coverlips. To avoid cluster formation, a maximum of two DRG explants were transferred onto a single glass coverslip. Following an initial attachment phase, the pre-incubation medium was replaced by fully supplemented growth medium spiked with the test item (Methanesulfonic acid 2-(2,4-dichloro-benzoyl)-3-ureido-benzofuran-6-yl ester groups 2 and 3) or vehicle (DMF, group 1) and incubated at 37° C./10% CO2 for additional 22 hours in vitro. Following 22 hours in vitro, the DRG explants were fluorescently labelled and axonal growth and Schwann cell expansion were quantitatively assessed.
(§3) Group 1: Fully supplemented growth medium with 0.1% vehicle. Group 2: Fully supplemented growth medium with 0.1% vehicle and Methanesulfonic acid 2-(2,4-dichloro-benzoyl)-3-ureido-benzofuran-6-yl ester at a final concentration of 0.1 μM. Group 3: Fully supplemented growth medium with 0.1% vehicle and Methanesulfonic acid 2-(2,4-dichloro-benzoyl)-3-ureido-benzofuran-6-yl ester at a final concentration of 1 μM.
Morphometric data are presented as the mean values and standard deviations of the axonal growth area in μm^2.

[2] = test system: Schwann cells of embryonic DRG explants; assay: Schwann cell expansion in embryonic DRG explants; assay type: cell-based, rat; details: for Schwann cell expansion (numbers of Schwann cells outside the DRG explant core): 22 hours in vitro, versus vehicle
Procedure: as §1, §2, §3
Data are presented as the mean values and standard deviations of the numbers of Schwann cells outside the DRG explant core.

[3] = test system: severe contusive SCI in Lewis rats; assay: BBB open field locomotor rating scale after severe spinal cord contusion injury; assay type: in vivo; details: rat, oral
Procedure: Oral treatment with a benzofuranylsulfonate after severe spinal cord contusion injury in the rat.
Thirteen week-old female Lewis rats (Charles River, Sulzfeld Germany) were housed under a 12:12 h dark/light regime and allowed free access to water and food. After one week of habituation the animals underwent general anesthesia with a mixture of isoflurane and air (induction: 5% isoflurane, maintenance: 2.2% isofluorane). A Th10 laminectomy was performed without rupturing the dura and a severe contusive SCI (25 gcm NYU/MASCIS II impactor) (Gruner, 1992) was induced. After suturing muscle and skin, a subcutaneous (s.c.) injection of 5 ml of Ringers Lactate was given. Bladders were emptied manually 2 times a day until spontaneous voiding returned (usually within 1 week). The lesion severity was verified by the impact velocity and contusion depth of the impactor rod. Animals with an impact velocity error >5% were excluded from further analysis. After injury, individual rats were randomly assigned into a treatment group. The following groups were used: […]
The BBB open field locomotor rating scale: The BBB locomotor rating scale was used to assess general locomotor performance (Basso et al., 1995). The score was assessed before injury and at 1, 3, 5, 7, 14, 21, 35, 42, 49, 56 and 63 days post operation (dpo) by 2 blinded observers.

CS(=O)(=O)Oc1ccc2c(NC(N)=O)c(C(=O)c3ccc(Cl)cc3Cl)oc2c1 [methanesulfonic acid 2-(2,4-dichloro-benzoyl)-3-ureido-benzofuran-6-yl ester]
growth area of outgrowing axons, as compared to vehicle-treated cultures ([1]; 0.1 μM): significant increase
growth area of outgrowing axons, as compared to vehicle-treated cultures ([1]; 1 μM): significant increase
elevation of axonal growth areas (fold) ([1]; 1 μM, versus vehicle): nearly five fold
Schwann cell expansion (numbers of Schwann cells outside the DRG explant core) ([2]; 0.1 μM): significant increase
Schwann cell expansion (numbers of Schwann cells outside the DRG explant core) ([2]; 1 μM): significant increase
increase of Schwann cell numbers (fold) ([2]; treated cultures versus vehicle-treated cultures, highest at 0.1 μM): nearly fivefold
BBB score at steady state ([3]; 10 mg in vehicle, vehicle animals 7.8): 8.8
BBB performance compared to vehicle controls at the end of the experiment ([3]; 10 mg, DPO 56, Students T-Test p=0.01): significantly better
